Common to all, as to type: cell-based
For assay [1], the system named is Staphylococcus aureus ATCC29213. The experiment in a line: MIC, microbroth dilution. The conditions noted are these: Staphylococcus aureus ATCC29213, rifS; read-out: Antimicrobial activity (MIC). A general note: Broth dilution looks for growth in wells or tubes with falling amounts of substance.
Assay [2] concerns Staphylococcus aureus ATCC29213 rpoB^D417Y. The experiment in a line: microbe, parasite or virus in culture. To be noted: Staphylococcus aureus ATCC29213 rpoB^D417Y, rifR; read-out: Antimicrobial activity (MIC). The protocol:
(§1) Representative compounds were assayed for antimicrobial activity as follows: Minimum Inhibitory Concentrations (“MICs”) were determined by the microbroth dilution method as per NCCLS guidelines (National Committee for Clinical Laboratory Standards. 2000. Methods for dilution antimicrobial susceptibility tests for bacteria that grow aerobically, 5th ed. M7-A5. National Committee for Clinical Laboratory Standards, Wayne, Pa.), except that all growth incubations were conducted at 37° C. Bacterial cultures were tested in the following bacteriological media: S. aureus, S. epidermidis, and E. coli in Cation-Adjusted Mueller-Hinton Broth, S. pneumoniae in THY Broth supplemented with 1 mg/mL catalase under 5% CO2 atmosphere, S. pyogenes in THY Broth, E. faecalis in BHI Broth, H. influenzae in BHI Broth supplemented with 0.75 μL of 1 mg/mL NAD and 150 μL of 1 mg/ml hematin per 5 mL, and M. smegmatis in Middlebrook Broth plus ADC Enrichment.
(§2) S. aureus ATCC 29213 RpoB^H418Y is a rifampin-resistant strain with a mutation in the RpoB gene of RNA polymerase. […] S. aureus EN1252a gyrA^S84L grlA^S80F is a quinolone-resistant strain due to double gene mutations of DNA gyrase and topoisomerase IV.

The subject of assay [3] is Staphylococcus aureus ATCC29213 rpoB^H418Y. The experiment in a line: microbe, parasite or virus in culture. To be noted: Staphylococcus aureus ATCC29213 rpoB^H418Y, rifR; read-out: Antimicrobial activity (MIC). The method, then:
as §1, §2

Assay [4] relates to Staphylococcus aureus EN1252a gyrA^S84L grlA^S80F. The experiment in a line: microbe, parasite or virus in culture. The conditions noted are these: Staphylococcus aureus EN1252a gyrA^S84L grlA^S80F, cipR; read-out: Antimicrobial activity (MIC). The method, then:
as §1, §2

Assay [5] relates to Staphylococcus epidermidis ATCC12228. The experiment in a line: MIC, microbroth dilution. The conditions noted are these: Staphylococcus epidermidis ATCC12228, rifS; read-out: Antimicrobial activity (MIC).
Assay [6] relates to Streptococcus pneumoniae ATCC6303. The experiment in a line: MIC, microbroth dilution. The conditions noted are these: Streptococcus pneumoniae ATCC6303, rifS; read-out: Antimicrobial activity (MIC).
Assay [7] has as its system Streptococcus pyogenes ATCC19615. The experiment in a line: MIC, microbroth dilution. The conditions noted are these: Streptococcus pyogenes ATCC19615, rifS; read-out: Antimicrobial activity (MIC).
The subject of assay [8] is Enterococcus faecalis ATCC29212. The experiment in a line: MIC, microbroth dilution. The conditions noted are these: Enterococcus faecalis ATCC29212, rifS; read-out: Antimicrobial activity (MIC).
Assay [9] relates to Haemophilus influenzae ATCC10211. The experiment in a line: MIC, microbroth dilution. To be noted: Haemophilus influenzae ATCC10211, rifS; read-out: Antimicrobial activity (MIC).
Assay [10] deals with Escherichia coli ATCC25922. The experiment in a line: MIC, microbroth dilution. To be noted: Escherichia coli ATCC25922, rifS; read-out: Antimicrobial activity (MIC).
For assay [11], the system named is Mycobacterium smegmatis ATCC700084. The experiment in a line: MIC, microbroth dilution. The conditions noted are these: Mycolicibacterium smegmatis; Mycobacterium smegmatis ATCC700084, rifS; read-out: Antimicrobial activity (MIC).

Values after ≈ are worked out from the molar mass of the structure shown.

For the molecule `CO[C@H]1/C=C/O[C@@]2(C)Oc3c(C)c(O)c4c(c3/C2=N/OCCN(CCO)CCO)C(=O)C=C(NC(=O)/C(C)=C\C=C\[C@H](C)[C@H](O)[C@@H](C)[C@@H](O)[C@@H](C)[C@H](OC(C)=O)[C@@H]1C)C4=O` [Example 20, 11-Deoxy-11-{2-[bis-(2-hydroxy-ethyl)-amino]ethoxyimino}rifamycin S], the MIC in assay [1] was in the range of 0.004 to 0.5 µg/mL (≈ 0.00475 to 0.594 µM); in assay [2], 0.25 to 32 µg/mL (≈ 0.297 to 38 µM); in [3], 0.125 to 16 µg/mL (≈ 0.148 to 19 µM); in assay [4], 0.004 to 0.5 µg/mL (≈ 0.00475 to 0.594 µM); in [5], 0.0005 to 0.063 µg/mL (≈ 0.000594 to 0.0748 µM); in [6], 0.0002 to 0.125 µg/mL (≈ 0.000238 to 0.148 µM). The MIC was 0.0005 to 0.063 µg/mL (≈ 0.000594 to 0.0748 µM) in assay [7]; 2 to 32 µg/mL (≈ 2.38 to 38 µM) in assay [8]; 0.03 to 2 µg/mL (≈ 0.0356 to 2.38 µM) in assay [9]; 0.125 to 8 µg/mL (≈ 0.148 to 9.5 µM) in assay [10]; 0.5 to 64 µg/mL (≈ 0.594 to 76 µM) in [11].

For the molecule `CO[C@H]1/C=C/O[C@@]2(C)Oc3c(C)c(O)c4c(c3/C2=N/OCCN2CC(C)NC(C)C2)C(=O)C=C(NC(=O)/C(C)=C\C=C\[C@H](C)[C@H](O)[C@@H](C)[C@@H](O)[C@@H](C)[C@H](OC(C)=O)[C@@H]1C)C4=O` (stereo partly shown) [Example 21, 11-Deoxy-11-[2-(3,5-dimethyl-piperazin-1-yl)ethoxyimino]rifamycin S], the MIC in [1] was in the range of 0.004 to 0.5 µg/mL (≈ 0.0047 to 0.588 µM); in assay [2], 0.25 to 32 µg/mL (≈ 0.294 to 37.6 µM); in assay [3], 0.125 to 16 µg/mL (≈ 0.147 to 18.8 µM); in assay [4], 0.004 to 0.5 µg/mL (≈ 0.0047 to 0.588 µM); in assay [5] it was 0.0005 to 0.063 µg/mL (≈ 0.000588 to 0.074 µM); in assay [6], 0.0002 to 0.125 µg/mL (≈ 0.000235 to 0.147 µM). In addition, the MIC is 0.0005 to 0.063 µg/mL (≈ 0.000588 to 0.074 µM) in assay [7]; 2 to 32 µg/mL (≈ 2.35 to 37.6 µM) in assay [8]; 0.03 to 2 µg/mL (≈ 0.0353 to 2.35 µM) in assay [9]; 0.125 to 8 µg/mL (≈ 0.147 to 9.4 µM) in assay [10]; 0.5 to 64 µg/mL (≈ 0.588 to 75.2 µM) in assay [11].

Regarding `CO[C@H]1/C=C/O[C@@]2(C)Oc3c(C)c(O)c4c(c3/C2=N/OCCN2CCN(C)CC2)C(=O)C=C(NC(=O)/C(C)=C\C=C\[C@H](C)[C@H](O)[C@@H](C)[C@@H](O)[C@@H](C)[C@H](OC(C)=O)[C@@H]1C)C4=O` [Example 22, 11-Deoxy-11-[2-(4-methylpiperazin-1-yl)ethoxyimino]rifamycin S], the MIC in assay [1] was in the range of 0.004 to 0.5 µg/mL (≈ 0.00478 to 0.597 µM); in assay [2] it was 0.25 to 32 µg/mL (≈ 0.299 to 38.2 µM); in assay [3] it was 0.125 to 16 µg/mL (≈ 0.149 to 19.1 µM); in assay [4], 0.004 to 0.5 µg/mL (≈ 0.00478 to 0.597 µM); in assay [5] it was 0.0005 to 0.063 µg/mL (≈ 0.000597 to 0.0753 µM); in assay [6], 0.0002 to 0.125 µg/mL (≈ 0.000239 to 0.149 µM). In addition, the MIC was 0.0005 to 0.063 µg/mL (≈ 0.000597 to 0.0753 µM) in [7]; 2 to 32 µg/mL (≈ 2.39 to 38.2 µM) in assay [8]; 0.03 to 2 µg/mL (≈ 0.0358 to 2.39 µM) in assay [9]; 0.125 to 8 µg/mL (≈ 0.149 to 9.56 µM) in assay [10]; 0.5 to 64 µg/mL (≈ 0.597 to 76.5 µM) in assay [11].

On to `CO[C@H]1/C=C/O[C@@]2(C)Oc3c(C)c(O)c4c(c3/C2=N/OCCN2CCC(O)CC2)C(=O)C=C(NC(=O)/C(C)=C\C=C\[C@H](C)[C@H](O)[C@@H](C)[C@@H](O)[C@@H](C)[C@H](OC(C)=O)[C@@H]1C)C4=O` [Example 23, 11-Deoxy-11-[2-(4-hydroxypiperadin-1-yl)ethoxyimino]rifamycin S], for which the MIC in assay [1] lay in the range of 0.004 to 0.5 µg/mL (≈ 0.00477 to 0.597 µM); in assay [2] it was 0.25 to 32 µg/mL (≈ 0.298 to 38.2 µM); in [3], 0.125 to 16 µg/mL (≈ 0.149 to 19.1 µM); in [4], 0.004 to 0.5 µg/mL (≈ 0.00477 to 0.597 µM); in assay [5], 0.0005 to 0.063 µg/mL (≈ 0.000597 to 0.0752 µM); in assay [6] it was 0.0002 to 0.125 µg/mL (≈ 0.000239 to 0.149 µM). Also, the MIC in [7] is 0.0005 to 0.063 µg/mL (≈ 0.000597 to 0.0752 µM); in [8], 2 to 32 µg/mL (≈ 2.39 to 38.2 µM); in assay [9], 0.03 to 2 µg/mL (≈ 0.0358 to 2.39 µM); in assay [10], 0.125 to 8 µg/mL (≈ 0.149 to 9.55 µM); in assay [11], 0.5 to 64 µg/mL (≈ 0.597 to 76.4 µM).

As to `CO[C@H]1/C=C/O[C@@]2(C)Oc3c(C)c(O)c4c(c3/C2=N/OCCN2CCOCC2)C(=O)C=C(NC(=O)/C(C)=C\C=C\[C@H](C)[C@H](O)[C@@H](C)[C@@H](O)[C@@H](C)[C@H](OC(C)=O)[C@@H]1C)C4=O` [Example 24], the MIC in assay [1] was 0.004 to 0.5 µg/mL (≈ 0.00485 to 0.607 µM); in [2], 0.25 to 32 µg/mL (≈ 0.303 to 38.8 µM); in assay [3], 0.125 to 16 µg/mL (≈ 0.152 to 19.4 µM); in [4], 0.004 to 0.5 µg/mL (≈ 0.00485 to 0.607 µM); in assay [5], 0.0005 to 0.063 µg/mL (≈ 0.000607 to 0.0765 µM); in [6], 0.0002 to 0.125 µg/mL (≈ 0.000243 to 0.152 µM). The MIC lay within 0.0005 to 0.063 µg/mL (≈ 0.000607 to 0.0765 µM) in assay [7]; 2 to 32 µg/mL (≈ 2.43 to 38.8 µM) in [8]; 0.03 to 2 µg/mL (≈ 0.0364 to 2.43 µM) in assay [9]; 0.125 to 8 µg/mL (≈ 0.152 to 9.71 µM) in [10]; 0.5 to 64 µg/mL (≈ 0.607 to 77.7 µM) in assay [11].

The values above are taken from patent US7256187B2, “Rifamycin C-11 oxime derivatives effective against drug-resistant microbes” (Cumbre Pharmaceuticals Inc., priority 2004, dated 2007).
